# Experimental data: US20090203661A1, “Betulinic acid, derivatives and analogs thereof and uses therefor” (priority 2006, published 2009)
# Residues, ends and D or L forms follow the SMILES beside them. *: point of attachment. Cbz = O=C(OCc1ccccc1)*
# Columns and labels:
# HT-29 cells [1] = conditions: HT-29, earlier reports; cited from earlier work
# SW480 cells [2] = conditions: SW480, earlier reports; cited from earlier work
# SW480 cells [3] = conditions: SW480, reference [9]; cited from earlier work
# LNCaP cells = assay: Western blot analysis of protein expression in LNCaP cells; format: cell-based, Human; conditions: 10 μM, compound alone
# Description: Human carcinoma cell lines LNCaP (prostate) and SK-MEL2 (melanoma) were obtained from American Type Culture Collection (Manassas, Va.). Cell lines were maintained in RPMI 1640 (Sigma) supplemented with 0.22% sodium bicarbonate, 0.011% sodium pyruvate, 0.45% glucose, 0.24% HEPES, 10% FBS, and 10 mL/L of 100× Antibiotic Antimycotic solution (Sigma). Cells were maintained at 37° C. in the presence of 5% CO2.
# An equal amount of cell lysate (60 μg/well) was separated by 7.5% to 12% SDS-PAGE, which was followed by immunoblotting onto polyvinylidene difluoride (Bio-Rad, Hercules, Calif.). After blocking in TBST-Blotto (10 mmol/L Tris-HCl, 150 mmol/L NaCl (pH 8.0), 0.05% Triton X-100, 5% nonfat dry milk) for 30 min, the membranes were incubated with primary antibodies overnight at 4° C. and then with horseradish peroxidase-conjugated secondary antibody for 2 hr at room temperature. Proteins were visualized using the chemiluminescence substrate (Perkin-Elmer Life Sciences) for 1 min and exposed to Kodak X-OMAT AR autoradiography film (Eastman Kodak, Rochester, N.Y.).
# PPARγ = molecular target: T1, PPARγ (Homo sapiens, UniProt P37231); assay: Mammalian two-hybrid assay (VP-PPARγ / GAL4-coactivator) in SW480 cells; format: cell-based
# T1 construct: containing the DEF region of the PPARγ (amino acids 183-505) fused to the pVP16 expression vector; expressed in transfected cells; host or cells: SW480 colon cancer cells; plasmid provided by Dr. Shigeaki Kato (University of Tokyo)
# T1 sequence (P37231 183-505): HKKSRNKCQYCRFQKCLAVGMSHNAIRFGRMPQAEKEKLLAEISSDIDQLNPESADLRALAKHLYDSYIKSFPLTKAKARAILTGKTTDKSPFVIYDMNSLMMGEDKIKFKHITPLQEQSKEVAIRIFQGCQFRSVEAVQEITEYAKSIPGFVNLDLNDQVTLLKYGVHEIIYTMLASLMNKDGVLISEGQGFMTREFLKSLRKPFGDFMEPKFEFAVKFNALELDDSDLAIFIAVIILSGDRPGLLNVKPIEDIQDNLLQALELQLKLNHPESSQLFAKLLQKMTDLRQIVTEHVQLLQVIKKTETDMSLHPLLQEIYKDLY
# Description: The GAL4 reporter construct containing 5×GAL4 response elements (p GAL4) was provided by Dr. Marty Mayo (University of […], Chapel Hill, N.C.). The GAL4-coactivator fusion plasmids pM-SRC1, pMSRC2, pMSRC3, pM-DRIP205, pM-CARM-1 and PPARγ-VP16 fusion plasmid (Vp-PPARγ) containing the DEF region of the PPARγ (amino acids 183-505) fused to the pVP16 expression vector were provided by Dr. Shigeaki Kato (University of Tokyo, Tokyo, Japan). SW480 colon cancer cells were plated in 12-well tissue culture plates at 1×10^5 cells per well in DMEM/Ham's F-12 medium supplemented with 2.5% charcoal stripped FBS.
# After allowing them to adhere overnight, transient transfections were carried out with GAL4-Luc (0.4 μg), β-GAL (0.04 μg), VP-PPARγ (0.04 μg), pM-SRC1 (0.04 μg), pM-PGC-1 (0.04 μg), pM-SMRT (0.04 μg), pM-TRAP220 (0.04 μg), pM-DRIP205 (0.04 μg), and pMCARM1 (0.04 μg) using LipofectAMINE2000 (Invitrogen) following the manufacturer's guidelines. After 6 hr of transfection, cells were treated in triplicate either with vehicle (DMSO) or the indicated compound suspended in complete medium for 20-24 hr. One hundred μL per well of 1× Reporter Lysis Buffer (Promega) was used to lyse the cells and 30 μl of this lysate was used to perform the luciferase and β-GAL assays using Lumicount (Perkin-Elmer Life and Analytical Sciences, Boston, Mass.). The luciferase activities obtained were normalized to the β-gal activity.
# HT-29 cells [4] = assay: KLF4 mRNA (RT-PCR) in HT-29 cells; format: cell-based, human
# Description: SW480 and HT29 colon cancer cells were treated either with vehicle (DMSO) or indicated compounds and after 24 hr total RNA was extracted using RNeasy Mini kit (Qiagen, Inc., Valencia, Calif.). RNA concentration was measured by UV 260:280 nm absorption ratio and 2 μg RNA was used to synthesize cDNA using Reverse Transcription System (Promega). PCR conditions were as follows: initial denaturation at 94° C. (1 min) followed by 28 cycles of denaturation for 30 s at 94° C., annealing for 60 s at 55° C. and extension at 72° C. for 60 s and a final extension step at 72° C. for 5 min. The mRNA levels were normalized using GAPDH as an internal housekeeping gene. Primers obtained from IDT and used for amplification are as follows: KLF4 (sense 5′-CTATGGCAGGGAGTCCGCTCC-3′ (SEQ ID NO: 1); antisense 5′-ATGACCGACGGGCTGCCGTAC-3′ (SEQ ID NO: 2)) and GAPDH (sense 5′-ACGGATTTGGTCGTATTGGGCG-3′ (SEQ ID NO: 3); antisense 5′-CTCCTGGAAGATGGTGATGG-3′ (SEQ ID NO: 4). PCR products were electrophoresed on 1% agarose gels containing ethidium bromide and visualized under UV transillumination.
SMILES,caveolin-1 induction (HT-29 cells [1]),caveolin-1 induction (SW480 cells [2]),other results
CC1(C)CC[C@]2(C(=O)O)CC[C@]3(C)[C@H](C(=O)C=C4[C@@]5(C)C=C(C#N)C(=O)C(C)(C)[C@@H]5CC[C@]43C)[C@@H]2C1 [CDDO],inducing caveolin-1,inducing caveolin-1,–
COC(=O)[C@@]1(C)CC[C@]2(C)CC[C@]3(C)C(=CC(=O)[C@@H]4[C@@]5(C)C=C(C#N)C(=O)C(C)(C)[C@@H]5CC[C@]43C)[C@H]2C1 [α-CDODA-Me],inducing caveolin-1,inducing caveolin-1,KLF4 mRNA (SW480 cells [3]): enhanced KLF4 mRNA
CC(C)C[C@@H](C=O)NC(=O)[C@H](CC(C)C)NC(=O)[C@H](CC(C)C)NC(=O)OCc1ccccc1 [MG132] (Cbz-Leu-Leu-Leu-aldehyde),–,–,PARP cleavage (LNCaP cells): induced caspase-dependent cleavage of PARP
CC1(C)C(=O)C(C#N)=C[C@]2(C)[C@H]3C(=O)C=C4[C@@H]5C[C@@](C)(C(=O)O)CC[C@]5(C)CC[C@@]4(C)[C@]3(C)CC[C@@H]12 [β-CDODA],induced caveolin-1,–,–
"COC(=O)[C@@]1(C)CCC2(C)CC[C@]3(C)C(=CC(=O)[C@@H]4C5(C)C=C(C#N)C(=O)C(C)(C)[C@@H]5CCC43C)C2C1 (stereo partly drawn) [β-CDODA-Me, Methyl 2-cyano-3,12-dioxo-18β-olean-1,12-diene-30-oic Acid, reference compound]",–,–,"luciferase activity, VP-PPARγ with GAL4 PGC-1 and GAL4 SRC-1 (PPARγ): significantly induced luciferase activity; effect of T007 on induction of KLF4 mRNA (HT-29 cells [4]; HT-29, cotreatment with T007): decreased significantly; part of induced KLF4 mRNA response inhibited by T007 (HT-29 cells [4]; cotreatment with T007): 60-80%"
